Molecules are shown by their SMILES. Bounds are passed on as bounds.

The values below come from ChEMBL document CHEMBL4382212, “Tetrazolylpropan-2-ones as inhibitors of fatty acid amide hydrolase: Studies on structure-activity relationships and metabolic stability” (Eur J Med Chem, 2018).

The nature of the data set: Partition coefficient, log P of the compound at 5 mM by reversed phase HPLC analysis. The class given is physicochemical. Conditions: octanol/water.
`CCCCCCCCc1ccc(OCC(=O)Cn2nnc(-c3ccc(C(=O)OC)cc3)n2)cc1` had a logP at 5000 µM of 8.
With `COC(=O)c1ccc(-c2nnn(CC(=O)C(C)Oc3ccc(Oc4ccc(F)cc4)cc3)n2)cc1` (centres undefined) the figure was 5.4; with `COC(=O)c1ccc(-c2nnn(CC(=O)C(C)Oc3ccc(-c4ccccc4)cc3)n2)cc1` (centres undefined), 5.4; with `COC(=O)c1ccc(-c2nnn(CC(=O)C(C)Oc3ccc(Oc4ccc(C(F)(F)F)cc4)cc3)n2)cc1` (centres undefined), 6.2.
In turn, `CC(Oc1ccc(Oc2ccc(C(F)(F)F)cc2)cc1)C(=O)Cn1nnc(-c2ccc(Cl)cc2)n1` (centres undefined) registered a logP at 5000 µM of 7.
The molecule `CC(Oc1ccc(-c2ccccc2)cc1)C(=O)Cn1nnc(-c2ccc(Cl)cc2)n1` (centres undefined) registered a logP at 5000 µM of 6.1.
With `CCCCCCCCc1ccc(OCC(=O)Cn2nnc(C(=O)O)n2)cc1` the figure was 5.3; with `CCCCCCCCc1ccc(OCC(=O)Cn2nnc(-c3ccc(Cl)cc3)n2)cc1`, above 8.
With `CC(Oc1ccc(Oc2ccc(Cl)cc2)cc1)C(=O)Cn1nnc(-c2ccc(Cl)cc2)n1` (centres undefined) the figure was 6.8; with `CC(Oc1ccc(Oc2ccc(F)cc2)cc1)C(=O)Cn1nnc(-c2ccc(Cl)cc2)n1` (centres undefined), 6.2.
The molecule `CC(Oc1ccc(Oc2ccc(F)cc2)cc1)C(=O)Cn1nnc(-c2ccccc2)n1` (centres undefined) registered a logP at 5000 µM of 5.3.
Molecule `CCCCCCCCc1ccc(OC(C)C(=O)Cn2nnc(-c3ccc(Cl)cc3)n2)cc1` (centres undefined) yielded a logP at 5000 µM above 8.
With `CC(Oc1ccc(-c2ccccc2)cc1)C(=O)Cn1nnc(-c2ccc(C(=O)O)cc2)n1` (centres undefined) the figure was 2.6; with `CCCCCCCCc1ccc(OCC(=O)Cn2nnc(-c3ccccc3)n2)cc1`, 8.
For the molecule `CC(Oc1ccc(Oc2ccc(C(F)(F)F)cc2)cc1)C(=O)Cn1nnc(-c2ccc(C(=O)O)cc2)n1` (centres undefined), the logP at 5000 µM came to 3.5.
With `CC(Oc1ccc(Oc2ccc(Cl)cc2)cc1)C(=O)Cn1nnc(-c2ccccc2)n1` (centres undefined) the figure was 6; with `CCCCCCCCc1ccc(OC(C)C(=O)Cn2nnc(-c3ccc(C(=O)O)cc3)n2)cc1` (centres undefined), 5.9.
For the molecule `CCCCCCCCc1ccc(OC(C)C(=O)Cn2nnc(-c3ccccc3)n2)cc1` (centres undefined), the logP at 5000 µM is above 8.
`CC(Oc1ccc(Oc2ccc(C(F)(F)F)cc2)cc1)C(=O)Cn1nnc(-c2ccccc2)n1` (centres undefined) registered a logP at 5000 µM of 6.2.
With `CC(Oc1ccc(Oc2ccc(Cl)cc2)cc1)C(=O)Cn1nnc(-c2ccc(C(=O)O)cc2)n1` (centres undefined) the figure was 3.3.
As for `COC(=O)c1ccc(-c2nnn(CC(=O)C(C)Oc3ccc(Oc4ccc(Cl)cc4)cc3)n2)cc1` (centres undefined), the lipophilicity (logP) at 5000 µM came out at 6.1.
With `CC(Oc1ccc(-c2ccccc2)cc1)C(=O)Cn1nnc(-c2ccccc2)n1` (centres undefined) the figure was 5.3; with `CCCCCCCCc1ccc(OC(C)C(=O)Cn2nnc(-c3ccc(C(=O)OC)cc3)n2)cc1` (centres undefined), above 8.
Molecule `CC(Oc1ccc(Oc2ccc(F)cc2)cc1)C(=O)Cn1nnc(-c2ccc(C(=O)O)cc2)n1` (centres undefined) had a logP at 5000 µM of 2.7.

In general, logP refers to the decadic logarithm of the partition coefficient of the neutral form, usually between octanol and water. High values mean higher lipophilicity, low ones lower lipophilicity.
